For the assay, the target named is BlaR (Staphylococcus aureus, UniProt P18357). Kind of assay: SPR steady-state fit, immobilized sensor domain. The format is binding.
BlaR, sequence (P18357 332-585): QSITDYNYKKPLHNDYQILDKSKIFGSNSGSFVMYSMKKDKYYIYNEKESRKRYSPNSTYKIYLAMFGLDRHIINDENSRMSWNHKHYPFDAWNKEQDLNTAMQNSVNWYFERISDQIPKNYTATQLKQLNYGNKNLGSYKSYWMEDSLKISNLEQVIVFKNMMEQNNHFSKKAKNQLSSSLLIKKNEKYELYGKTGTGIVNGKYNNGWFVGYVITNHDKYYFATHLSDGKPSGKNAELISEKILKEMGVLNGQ

Regarding `Cn1ncc2c(Nc3ccc(Br)cc3)nc(Nc3ccc(Br)cc3)nc21` [compound 1, N^4,N^6-bis(4-bromophenyl)-1-methyl-1H-pyrazolo[3,4-d]pyrimidine-4,6-diamine], binding was characterised by a dissociation constant (Kd) of 31 ± 2 µM.

These data come from article PMC13428274 (ACS infectious diseases, 2025).
